“Also recorded” adds a separate entry of the source.
Experiments:
[1] = system: T47D (human ER+ breast cancer cell line) xenografts; experiment: Growth of ER+ breast cancer cell line (T47D) xenografts in mice; assay type: in vivo; details: NODscid mice with estrogen pellet; p.o. once daily 3-5 weeks; candesartan cilexetil 10/30/100, irbesartan 30/100/300, tamoxifen 0.1/0.3/1.0 mg/kg
Protocol: Female NODscid mice of age 5-6 weeks received a subcutaneous estrogen pellet implant (1.7 mg). Twenty four hours after estrogen pellet implantation, the mice received tumor implantation by subcutaneous injection of T47D cells to the flank (approximately 2.5×10^6 cells/mouse). The mice were ear-notched for identification and housed 4 animals per cage. The tumor implantation site was palpated up to 3 times weekly to monitor tumor growth. One hundred animals in which tumor implantation was successful (7-12 days after injection) were randomized to ten treatment groups, 10 animals per group:
Tumors were measured 3 times weekly using digital calipers. Body weight was measured twice weekly. Clinical observations were conducted weekly. At the conclusion of the study or when mice attained a maximum tumor burden of about 3.0 cm^3 or about 10% of body weight, the mice were sacrificed, tumors were harvested and a terminal blood sample was collected.

[2] = system: T47D cells; experiment: Cell proliferation assay (RT-CES impedance), ER+ cell line T47D; assay type: cell-based, human; details: for Effect on Ang II-induced growth / Effect on Ang II-induced cell proliferation: T47D
Protocol: (§1) Unless otherwise indicated, cell proliferation assays described in Examples 2-5 were performed using a Real-Time Cell Electronic Sensing (RT-CES™ 96×) instrument from ACEA Bioscience (San Diego, Calif.). This instrument utilizes an electronic readout (impedance) to non-invasively quantify adherent cell proliferation and viability in real time.
(§2) Cells were seeded in 96-well microtiter plates containing microelectronic sensor arrays (96E plates; ACEA). Cells were maintained in RPMI 1640 (Invitrogen, Carlsbad, Calif.) supplemented with 10% fetal bovine serum (FBS) (Hyclone, Logan, Utah) and were cultured at 37° C. in a humidified atmosphere containing 5% CO2. For proliferation assays, cells were seeded (20,000 cells/well), allowed to attach and grown overnight in standard growth medium. Cells were then serum-starved for 8 hours prior to the proliferation assay in presence or absence of test compound(s). The proliferation response was continuously monitored by measuring the impedance change in each well for the indicated number of hours. Data are expressed as cell index (CI) change relative to time in culture, reflecting measured changes in electrical impedance. Each value shown is an average of 6 wells. Where shown, statistical analysis was performed by calculation of standard deviation and P values were generated by a Student's two-tailed t-test.
(§3) T47D (American Type Culture Collection, Manassas, Va. (ATCC) cat. HTB-133) is an ER+ cell line derived from human mammary gland ductal carcinoma. Other ER+ cell lines used in studies reported herein include ZR-75 and HCC70. HCC1143 (ATCC cat. CRL-2321) is an ER− cell line also derived from human mammary gland ductal carcinoma.
(§4) Following the 8 hour starvation phase, either Ang II (Sigma-Aldrich), 500 nM, or vehicle control was added to the cell culture. […] Ang II also stimulated proliferation of ER+ cell lines HCC70, by approximately 30%, and ZR-75, by approximately 35%, relative to vehicle control (data not shown).
(§5) A cell proliferation assay procedure was followed as described in Example 2. Following the 8 hour starvation phase, either Ang II (Sigma-Aldrich), 500 nM, with or without the AT1 receptor antagonist telmisartan, 1.25 μM or 5 μM, or vehicle control was added to the cell culture.
(§6) A cell proliferation assay procedure was followed as described in Example 2. Following the 8 hour starvation phase, either Ang II (Sigma-Aldrich), 500 nM, with or without the AT1 receptor antagonist candesartan, 5 μM, or vehicle control was added to the cell culture.
(§7) A cell proliferation assay procedure was followed as described in Example 2. Following the 8 hour starvation phase, either Ang II (Sigma-Aldrich), 500 nM, with or without the AT1 receptor antagonist irbesartan, 5 μM, or vehicle control was added to the cell culture.
A cell proliferation assay was conducted by a procedure substantially as described in Example 2, using the ER+ human breast cancer cell line T47D. Following an eight-hour serum starvation phase, test substance was added to the cell culture to provide each of the following treatments: […]

[3] = system: HCC1143 cells; experiment: Cell proliferation assay (RT-CES impedance), ER- cell line HCC1143; assay type: cell-based, human; details: for Effect on cell proliferation: HCC1143
Protocol: as §1, §2, §3, §4, §5, §6, §7

[4] = administered for 5 years; women having risk factors; cited from earlier work
[5] = system: HCC1937 cells; experiment: Cell proliferation assay (RT-CES impedance), cell line HCC1937; assay type: cell-based, human
Protocol: as §1
as §2, with “t-test. […]” for “t-test.”

[6] = system: T47D cell line; details: cited from earlier work
[7] = system: HCC1954 cells; experiment: Cell proliferation assay (RT-CES impedance), cell line HCC1954; assay type: cell-based, human
Protocol: as §1
as §2, with “t-test. […]” for “t-test.”

[8] = system: HCC70 cells; experiment: Cell proliferation assay (RT-CES impedance), ER+ cell line HCC70; assay type: cell-based, human
Protocol: as §1
as §2, with “t-test. […]” for “t-test.”

[9] = system: breast cancer epithelial cell line MCF-7; details: cited from earlier work
[10] = system: HCC38 cells; experiment: Cell proliferation assay (RT-CES impedance), cell line HCC38; assay type: cell-based, human
Protocol: as §1
as §2, with “t-test. […]” for “t-test.”

[11] = system: cells cultured from invasive ductal carcinomas; details: cited from earlier work
[12] = system: ZR-75 cells; experiment: Cell proliferation assay (RT-CES impedance), ER+ cell line ZR-75; assay type: cell-based, human
Protocol: as §1
as §2, with “t-test. […]” for “t-test.”

[13] = system: HCC1395 cells; experiment: Cell proliferation assay (RT-CES impedance), cell line HCC1395; assay type: cell-based, human
Protocol: as §1
as §2, with “t-test. […]” for “t-test.”

[14] = system: T47D cells; details: cited from earlier work
[15] = system: ER; details: T47D (ER+, PR+) cells; cited from earlier work
[16] = system: PR; details: T47D (ER+, PR+) cells; cited from earlier work
[17] = Ang II 500 nM with AT1 receptor antagonist 5 μM
[18] = Ang II 500 nM with AT1 receptor antagonist 5 μM, data not shown
[19] = Ang II 500 nM with telmisartan 1.25 μM or 5 μM

CCOc1nc2cccc(C(=O)OC(C)OC(=O)OC3CCCCC3)c2n1Cc1ccc(-c2ccccc2-c2nnn[nH]2)cc1 (centres unmarked) [candesartan cilexetil]
Growth in tumor volume [1]: reduced in a dose-dependent fashion

CCOc1nc2cccc(C(=O)O)c2n1Cc1ccc(-c2ccccc2-c2nnn[nH]2)cc1 [candesartan, 2-ethoxy-1-[4-[2-(1H-tetrazol-5-yl)phenyl]benzyl]-7-benzimidazole-carboxylic acid]
Effect on Ang II-induced growth [2, 17]: significantly inhibited
Effect on cell proliferation [3, 18]: No effects

CC/C(=C(\c1ccccc1)c1ccc(OCCN(C)C)cc1)c1ccccc1 [tamoxifen]
Reduction of incidence of invasive breast cancer [4]: ~50%
Effect on Ang II-induced cell proliferation ([2]; tamoxifen 7.5 μM + Ang II 500 nM): reduced cell proliferation to a level lower than that of vehicle control
Growth in tumor volume [1]: reduced in a dose-dependent fashion

Ang II: peptide angiotensin II, a major regulator of blood pressure and cardiovascular homeostasis (Sigma-Aldrich) (DRVYIHPF; Angiotensin-2; UniProt P01019 25-32, looked up)
Ang II proliferation response [5]: negative
Stimulation of cell growth by Ang II [6]: significant stimulation of cell growth
Ang II proliferation response [7]: negative
Stimulation of proliferation relative to vehicle control ([8]; HCC70 (ER+), Ang II 500 nM, data not shown): approximately 30%
Ang II proliferation response ([8]; cell line HCC70): positive
Proliferative effect of Ang II [9]: dose-dependent proliferative effect
Ang II proliferation response [10]: negative
Proliferation stimulated by Ang II ([11]; ER and PR positive): stimulated in a dose-dependent manner
Stimulation of proliferation relative to vehicle control ([12]; ZR-75 (ER+), Ang II 500 nM, data not shown): approximately 35%
Ang II proliferation response ([12]; cell line ZR-75): positive
Effect of Ang II on cell growth/proliferation ([2]; T47D (ER+), Ang II 500 nM vs vehicle control, after 8 h serum starvation): significantly stimulated growth; also recorded: substantial increase in cell proliferation
Ang II proliferation response ([2]; cell line T47D): positive
Ang II proliferation response [13]: negative
Effect of Ang II on cell growth/proliferation ([3]; HCC1143 (ER-), Ang II 500 nM vs vehicle control): No effects
Ang II proliferation response ([3]; cell line HCC1143): negative

CCCCC1=NC2(CCCC2)C(=O)N1Cc1ccc(-c2ccccc2-c2nnn[nH]2)cc1 [irbesartan, 2-n-butyl-4-spirocyclopentane-1-[(2′-(tetrazol-5-yl)bipheny-4-yl)methyl]-2-imidazolin-5-one]
Effect on Ang II-induced growth [2, 17]: significantly inhibited
Effect on Ang II-induced cell proliferation ([2]; irbesartan 5 μM + Ang II 500 nM): reversed the Ang II effect
Growth in tumor volume [1]: the lowest dose tested (30 mg/kg) appeared to give the greatest effect
Effect on cell proliferation [3, 18]: No effects

C[C@H](CS)C(=O)N1CCC[C@H]1C(=O)O [Captopril]
[3H]thymidine incorporation (an index of cell proliferation) [14]: inhibited
ER protein concentration [15]: reduced
PR protein concentration [16]: increased

CCCCc1nc(Cl)c(CO)n1Cc1ccc(-c2ccccc2-c2nnn[nH]2)cc1 [losartan, 2-n-butyl-4-chloro-5-hydroxymethyl-1-[[2′-(1H-tetrazol-5-yl)biphenyl-4-yl]methyl]imidazole]
Effect on Ang II proliferative effect [9]: blocked
Effect on Ang II-stimulated proliferation [11]: blocked

CCCc1nc2c(C)cc(-c3nc4ccccc4n3C)cc2n1Cc1ccc(-c2ccccc2C(=O)O)cc1 [telmisartan, 4′-[[4-methyl-6-(1-methyl-2-benzimidazolyl)-2-propyl-1-benzimidazol-yl]methyl]-2-biphenylcarboxylic acid]
Effect on Ang II-induced growth [2, 19]: significantly inhibited
Effect on cell proliferation [3, 19]: No effects

NCCCC[C@H](N[C@@H](CCc1ccccc1)C(=O)O)C(=O)N1CCC[C@H]1C(=O)O [lisinopril]
[3H]thymidine incorporation (an index of cell proliferation) [14]: No such effects
ER protein concentration [15]: No such effects
PR protein concentration [16]: No such effects

Source: patent US20090012052A1, “METHOD FOR TREATING ER+ BREAST CANCER” (Ore Pharmaceuticals Inc., priority 2006, published 2009)
